The results in this text go back to US6013649A, “Thiol sulfone metalloprotease inhibitors” (Monsanto Company, priority 1997, dated 2000).

For one experiment, the target named is T1, hMMP 13 (Homo sapiens, UniProt P45452).
T1 construct: made in house
The experiment in a line: In vitro metalloprotease inhibition, fluorogenic peptide substrate (recombinant human MMP-13, APMA activated). Format: biochemical. Conditions: recombinant human MMP-13, room temperature, pH 7.5, 4 μM substrate. The method, then: (§1) Briefly, 4-aminophenylmercuric acetate (APMA) or trypsin activated MMPs were incubated with various concentrations of the inhibitor compound at room temperature for 5 minutes (0.02% 2-mercaptoethanol added to buffer for thiol compounds with 5 minutes or overnight incubation).
(§2) More specifically, recombinant human MMP-13 and MMP-1 enzymes were prepared in laboratories of the assignee. MMP-13 was expressed in baculovirus as a proenzyme, and purified first over a heparin agarose column and then over a chelating zinc chloride column. The proenzyme was activated by APMA for use in the assay. MMP-1 expressed in transfected HT-1080 cells was provided by Dr. Howard Welgus of Washington University, St. Louis, Mo. The enzyme was also activated using APMA and was then purified over a hydroxamic acid column.
(§3) The enzyme substrate is a methoxycoumarin-containing polypeptide having the following sequence:
(§4) MCA-ProLeuGlyLeuDpaAlaArgNH^2, wherein MCA is methoxycoumarin and Dpa is 3-(2,4--dinitrophenyl)-L-2,3-diaminopropionyl alanine.
(§5) Assays were carried out at room temperature, and dimethyl sulfoxide (DMSO) at a final concentration of 1 percent was used to dissolve inhibitor compound.
(§6) The assayed inhibitor compound in DMSO/buffer solution was compared to an equal amount of DMSO/buffer with no inhibitor as control using Microfluor™ White Plates (Dynatech). The inhibitor or control solution was maintained in the plate for 10 minutes and the substrate was added to provide a final concentration of 4 μM.
(§7) Inhibition was measured as a reduction in fluorescent intensity as a function of inhibitor concentration, using a Perkin Elmer L550 plate reader. The IC50 values were calculated from those values.

Experiment [1] has as its system neovascularization of the corneal stroma. Put plainly: In vivo angiogenesis assay (corneal micropocket assay, bFGF pellet). More on the design: species or system mouse (C57Bl/6 female). Conditions: 50 mg/kg bid, po, day five, mouse cornea. The method, then:
The study of angiogenesis depends on a reliable and reproducible model for the stimulation and inhibition of a neovascular response. The corneal micropocket assay provides such a model of angiogenesis in the cornea of a mouse. See, A Model of Angiogenesis in the Mouse Cornea; Kenyon, BM, et al., Investigative Ophthalmology & Visual Science, July 1996, Vol. 37, No. 8.
In this assay, uniformly sized Hydron™ pellets containing bFGF and sucralfate were prepared and surgically implanted into the stroma mouse cornea adjacent to the temporal limbus. […]
Mice were dosed on a daily basis for the duration of the assay. […] At day five, the degree of angiogenic inhibition was scored by viewing the neovascular progression with a slit lamp microscope.
The mice were anesthetized and the studied eye was once again proptosed. The maximum vessel length of neovascularization, extending from the limbal vascular plexus toward the pellet was measured. In addition, the contiguous circumferential zone of neovascularization was measured as clock hours, where 30 degrees of arc equals one clock hour. The area of angiogenesis was calculated as follows. […]
The studied mice were thereafter compared to control mice and the difference in the area of neovascularization was recorded.

The target in another experiment is T2, hMMP 1 (Homo sapiens, UniProt P03956).
T2 construct: host or cells: transfected HT-1080 cells
T2 sequence (P03956 100-469): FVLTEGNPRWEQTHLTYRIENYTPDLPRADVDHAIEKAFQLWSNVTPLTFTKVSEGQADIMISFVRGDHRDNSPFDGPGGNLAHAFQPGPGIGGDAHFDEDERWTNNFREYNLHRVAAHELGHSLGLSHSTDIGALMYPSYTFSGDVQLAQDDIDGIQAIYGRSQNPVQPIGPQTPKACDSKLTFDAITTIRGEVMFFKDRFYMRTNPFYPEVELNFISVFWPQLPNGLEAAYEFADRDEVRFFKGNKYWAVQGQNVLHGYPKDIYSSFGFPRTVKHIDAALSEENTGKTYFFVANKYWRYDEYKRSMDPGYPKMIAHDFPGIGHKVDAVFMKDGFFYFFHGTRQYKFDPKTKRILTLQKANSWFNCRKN
The experiment in a line: In vitro metalloprotease inhibition, fluorogenic peptide substrate (recombinant human MMP-1, APMA activated). Format: biochemical. Particulars: human MMP-1, room temperature, pH 7.5, 4 μM substrate. The method, then: as §1, §2, §3, §4, §5, §6, §7

Usually IC50 stands for the midpoint of a concentration-inhibition curve.

Consider `O=C(NCCN1CCOCC1)C(S)CCS(=O)(=O)c1ccc(Oc2ccccc2)cc1` (stereo not drawn) [Example 39], for which the IC50 at hMMP 13 was 0.0002 µM; at hMMP 1 it was 0.37 µM. For the same compound, in experiment [1], the “inhibition (difference in area of neovascularization vs control mice)” value was 51%.
